According to patent publication US20150219624A1, “METHODS FOR IDENTIFYING ANTI-CANCER COMPOUNDS” (MEMORIAL SLOAN KETTERING CANCER CENTER, priority 2013, published 2015):
pIC50: −log10 of the molar value.

Columns and labels:
human T-ALL lines = experiment: mRNA levels of target genes (real-time quantitative PCR); format: cell-based; conditions: 25 nM
Experimental: Real-Time Quantitative PCR. Total RNA was extracted using AllPrep DNA/RNA/Protein Mini Kit (Qiagen 80004). Normal CD3+ T-cell RNA mixed from healthy donors was purchased from Miltenyi Biotec (130-093-164). cDNA was made using SuperScript III First-Strand (Invitrogen 18080-400). Analysis was performed by ΔΔCt. Applied Biosystems Taqman GeneExpression Assays: human Myc Hs00153408_m1, hsa-miR-19b RT and TM 396, Rnu6b RT and TM 001093, and mouse Myc Mm00487804_m1.
Given the complexity of the RF data analysis, it was important to directly confirm loss of expression for at least some of these proteins. Briefly, immunoblots on JURKAT and KOPT-K1 cells treated with silvestrol (25 nM) and loaded with equal amounts of total protein confirmed dramatic loss of MYC, NOTCH1, BCL2, and CCND3 proteins (FIG. 6A). The effect on MYC was especially striking, it was dose dependent (FIG. 6B), lasted for 48 h, and was also achieved in xenografts in vivo (Figure S6A-B). […] As expected, ACTIN, TUBULIN, and GAPDH were not affected (FIG. 6A). […] The small and significant increase in MYC mRNA levels might be consistent with prior reports of a MYC auto-regulatory mechanism (Penn et al., 1990a; Penn et al., 1990b) (FIG. 6C).
FIG. 6 depicts validation of selected silvestrol targets. A) Immunoblots of lysates from human T-ALL lines treated with silvestrol (25 nM) and probed as indicated. […]

BE(1)N = experiment: Silvestrol in neuroblastoma cell lines in vitro: BE(1)N; format: cell-based; conditions: BE(1)N cells, N-MYC
Experimental: The effect of silvestrol on several neuroblastoma cell lines was evaluated.

SMILES: COC(=O)[C@H]1[C@@H](O)[C@@]2(O)c3c(OC)cc(O[C@@H]4O[C@@H]([C@H](O)CO)CO[C@H]4OC)cc3O[C@@]2(c2ccc(OC)cc2)[C@@H]1c1ccccc1 [silvestrol]
- corresponding mRNA expression (human T-ALL lines): no decrease
- pIC50 (BE(1)N): 8.60
